Measurements published in PubChem BioAssay AID1224920 (Broad Institute, 2016).
Activity calls are given as the source filed them.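 How the source made its calls: active means IC50 no higher than ten times the top tested dose; inconclusive means flat fit with 30 to 70% inhibition, or poor fit; inactive means IC50 above ten times the top dose.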

Test: growth modulation of Clostridium difficile isolate – OD600, 9-point, retest, dose response (AID 1224920);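 further: plate controls were DMSO for no effect and levofloxacin control for full effect; inhibitors lower culture turbidity so OD600 falls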
Settings: Clostridium difficile clinical isolate growth, OD600, 24 h

In the case of CN1c2ccc(Br)cc2[C@@H]2[C@@H](CCN2C(=O)Nc2ccc(F)cc2)[C@H]1CO, the activity change, negative = inhibition (at 120 µM (top of the series)) is reported as 127% (inactive).

For COc1ccc(NC(=O)N2C[C@@H]3N[C@H](C2)C3c2ccc(-c3cccc(OC)c3)cc2)cc1 (stereo partly drawn), the activity change, negative = inhibition (at 60 µM (top of the series)) was 28.8% (inactive).

For CN1c2ccc(-c3ccc(F)cc3)cc2[C@H]2[C@H](CCN2C(=O)Nc2ccc(F)cc2)[C@H]1CO, the activity change, negative = inhibition (at 120 µM (top of the series)) was 43.1% (inactive).

In the case of N#C[C@@H]1[C@@H](c2ccccc2-c2ccc(F)cc2)[C@H](CO)N1C(=O)NC1CCCC1, the activity change, negative = inhibition (at 135 µM (top of the series)) is reported as 14% (inactive).

In the case of Cc1ccc(-c2ccc([C@@H]3[C@H]4CN(C(=O)Nc5cccc(F)c5)CCCCN4[C@H]3CO)cc2)cc1, the activity change, negative = inhibition (at 120 µM (top of the series)) is reported as 6.7% (inactive).

For Cc1noc(C)c1NC(=O)N(C)C[C@H]1Oc2ccc(NC(=O)Nc3ccc4c(c3)OCO4)cc2CC(=O)N([C@H](C)CO)C[C@@H]1C, the activity change, negative = inhibition (at 120 µM (top of the series)) was -2.04% (inactive).

For CC(=O)N1[C@@H](CO)[C@H](c2ccccc2)[C@@H]1CN(C)C(=O)CN1CCOCC1, the activity change, negative = inhibition (at 120 µM (top of the series)) was -5.04% (inactive).

For CN1c2ccc(-c3cccc(F)c3)cc2[C@H]2[C@H](CCN2C(=O)C2CCCC2)[C@H]1CO, the activity change, negative = inhibition (at 120 µM (top of the series)) was 40.6% (inactive).

For CC(=O)NC[C@H]1[C@@H](c2ccc(-c3cccc(F)c3)cc2)[C@@H](CO)N1C(C)=O, the activity change, negative = inhibition (at 135 µM (top of the series)) was -7.05% (inactive).

For N#C[C@@H]1[C@H](c2ccccc2-c2cccc(F)c2)[C@H](CO)N1C(=O)Cc1cccnc1, the activity change, negative = inhibition (at 135 µM (top of the series)) was 9.55% (inactive).

With COc1ccc(NC(=O)N2CC[C@@H]3[C@H]2c2cc(Br)ccc2N(C)[C@@H]3CO)cc1 the activity change, negative = inhibition (at 135 µM (top of the series)) was 17.8% (inactive).

With COc1ccccc1-c1ccc(C2[C@@H]3CN(Cc4nccs4)C[C@H]2N3)cc1 (stereo partly drawn) the activity change, negative = inhibition (at 68 µM (top of the series)) was 37.9% (inactive).

In the case of COc1cccc(-c2ccc(C3[C@@H]4CN(C(=O)C5CCCCC5)C[C@H]3N4)cc2)c1 (stereo partly drawn), the activity change, negative = inhibition (at 60 µM (top of the series)) is reported as 34.7% (inactive).

With COc1ccc2c3c([nH]c2c1)[C@H](CO)N(C(=O)c1ccccc1)CC31CN(C(=O)Nc2cccc(F)c2)C1 the activity change, negative = inhibition (at 120 µM (top of the series)) was 39% (inactive).

With Cc1ccccc1-c1ccc([C@H]2[C@@H](CO)N3CCCCN(S(=O)(=O)c4ccc(F)cc4)C[C@H]23)cc1 the activity change, negative = inhibition (at 120 µM (top of the series)) was 3.42% (inactive).

With COc1ccc2c3c(n(C)c2c1)[C@H](CO)N(C)CC31CN(C(=O)NC(C)C)C1 the activity change, negative = inhibition (at 120 µM (top of the series)) was 0.365% (inactive).

In the case of CCC(=O)N1CC(=O)N2[C@H](CO)[C@@H](c3ccc(C#CC4CCCCC4)cc3)[C@@H]2C1, the activity change, negative = inhibition (at 30 µM (top of the series)) is reported as -9.02% (inactive).

In the case of CC(=O)N1[C@H](CN(C)C(=O)CN2CCOCC2)[C@@H](c2ccccc2)[C@@H]1CO, the activity change, negative = inhibition (at 120 µM (top of the series)) is reported as -1.26% (inactive).

In the case of N#Cc1ccc(-c2ccc(C3[C@H]4CNC[C@@H]3N4C(=O)Nc3ccc(Cl)cc3)cc2)cc1 (stereo partly drawn), the activity change, negative = inhibition (at 135 µM (top of the series)) is reported as 25.9% (inactive).

In the case of C/C=C/c1ccc(C2[C@@H]3CN(C(=O)Nc4ccc(F)cc4)C[C@H]2N3)cc1 (stereo partly drawn), the activity change, negative = inhibition (at 68 µM (top of the series)) is reported as 49.5% (inactive).

In the case of COc1ccc2c3c(n(C)c2c1)[C@@H](CO)N(C(=O)C1CC1)CC31CN(C(=O)Nc2cccc(F)c2)C1, the activity change, negative = inhibition (at 120 µM (top of the series)) is reported as 18.8% (inactive).

With COc1ccc(-c2ccccc2[C@@H]2[C@@H](C#N)N(C(=O)NC3CCCCC3)[C@H]2CO)cc1 the activity change, negative = inhibition (at 120 µM (top of the series)) was 9.48% (inactive).

For O=S(=O)(c1ccc(F)cc1)N1CCCCN2[C@@H](CO)[C@@H](c3ccc(-c4ccccc4)cc3)[C@@H]2C1, the activity change, negative = inhibition (at 120 µM (top of the series)) was 0.278% (inactive).

For O=C(Nc1ccccc1F)N1C[C@@H]2N[C@H](C1)C2c1ccc(-c2cccc(F)c2)cc1 (stereo partly drawn), the activity change, negative = inhibition (at 60 µM (top of the series)) was 33.4% (inactive).

With C[C@H](CO)N1C[C@H](C)[C@H](CN(C)Cc2ccc(Oc3ccccc3)cc2)Oc2ccc(NS(=O)(=O)c3ccccc3)cc2CC1=O the activity change, negative = inhibition (at 60 µM (top of the series)) was 33.6% (inactive).

For C/C=C/c1ccc([C@@H]2[C@@H](CO)N(Cc3ccccn3)[C@H]2CNC(C)=O)cc1, the activity change, negative = inhibition (at 120 µM (top of the series)) was -14.5% (inactive).

With CN1c2ccc(-c3cccc(F)c3)cc2[C@@H]2[C@@H](CCN2C(=O)Cc2ccccc2)[C@@H]1CO the activity change, negative = inhibition (at 135 µM (top of the series)) was 52.8% (inactive).

In the case of C/C=C/c1ccc([C@@H]2[C@@H](CO)N(C(=O)CC)[C@@H]2CNC(=O)CC)cc1, the activity change, negative = inhibition (at 120 µM (top of the series)) is reported as -6.09% (inactive).

In the case of COc1ccc2c3c(n(C)c2c1)[C@H](CO)N(C(=O)c1ccncc1)CC31CN(C)C1, the activity change, negative = inhibition (at 120 µM (top of the series)) is reported as 3.29% (inactive).

In the case of N#Cc1cccc(-c2ccc(C3[C@H]4CNC[C@@H]3N4C(=O)Nc3ccc(F)cc3)cc2)c1 (stereo partly drawn), the activity change, negative = inhibition (at 68 µM (top of the series)) is reported as 21.6% (inactive).

In the case of O=C(NC[C@H]1N[C@H](CO)[C@@H]1c1ccc(C2=CCCCC2)cc1)C1CCCC1, the activity change, negative = inhibition (at 60 µM (top of the series)) is reported as 38.1% (inactive).

With Cc1ccc(-c2ccc([C@@H]3[C@@H](CO)N4CCCCN(C(=O)Nc5cccc(F)c5)C[C@@H]34)cc2)cc1 the activity change, negative = inhibition (at 135 µM (top of the series)) was 15.8% (inactive).

In the case of C/C=C/c1ccc([C@H]2[C@@H](CNC(=O)c3ccccn3)N(C(C)=O)[C@H]2CO)cc1, the activity change, negative = inhibition (at 135 µM (top of the series)) is reported as -7.58% (inactive).
